A short description of the data set: Hygroscopicity of the crystal form. It is filed as physicochemical. Conditions: unless maintained at about 0% relative humidity the form comprises greater than 0.5 molecules of water per molecule of lopinavir. The text has this: The Type I hydrated crystal form of lopinavir comprising about 0.5 molecules of water per molecule of lopinavir is hygroscopic. Therefore, unless maintained under conditions of about 0% relative humidity, the Type I hydrated crystal form of lopinavir comprises greater than 0.5 molecules of water per molecule of lopinavir. If a Type I hydrated crystal form of lopinavir is dehydrated to below about 0.5 molecules of water per molecule of lopinavir, amorphous lopinavir is obtained.
The Type I crystal form of lopinavir comprising about 0.5 molecules of water per molecule of lopinavir has the powder X-ray diffraction pattern which appears in FIG. 1. The Type I crystal form of lopinavir comprising about 0.5 molecules of water per molecule of lopinavir has the solid state ^13C nuclear magnetic resonance spectrum, FT near infrared spectrum and FT mid infrared spectrum which appear in FIGS. 2, 3 and 4, respectively. The sample from which the infrared and nuclear magnetic resonance spectra were obtained may contain somewhat more than 0.5 molecules of water per molecule of lopinavir due to the hygroscopicity of the crystal form when the level of hydration is about 0.5 molecules of water per molecule of lopinavir.

Each structure is given as a SMILES string.

As to `Cc1cccc(C)c1OCC(=O)N[C@@H](Cc1ccccc1)[C@@H](O)C[C@H](Cc1ccccc1)NC(=O)[C@H](C(C)C)N1CCCNC1=O`, the hygroscopicity result is “hygroscopic”.

Values taken from patent US8058433B2, “Crystalline pharmaceutical” (Abbott Laboratories, priority 2000, dated 2011).
